# Test results: ChEMBL document CHEMBL1156193, “Discovery of a long-acting, peripherally selective inhibitor of catechol-O-methyltransferase” (2010)
# Calls of active or inactive are those of the source. The calls are words filed in the database; no cut-off is given here.
# Columns and labels:
# Rattus norvegicus [1] = assay: Inhibition of COMT in po dosed Wistar rat liver homogenates assessed as metanephrine formation measured up to 3 hrs relative to control; assay type: functional
# Mus musculus [2] = assay: Inhibition of COMT in NMRI mouse liver homogenates assessed as metanephrine formation at 30 mg/kg, po measured after 6 hrs relative to control; values are per cent of control
# Rattus norvegicus [3] = assay: Inhibition of central COMT in Wistar rat brain homogenates assessed as metanephrine formation at 3 mg/kg, po measured after 9 hrs; assay type: functional
# Rattus norvegicus [4] = assay: Inhibition of COMT in Wistar rat plasma assessed as increase L-DOPA level at 3 mg/kg, po co-administered with L-dopa and benserazide measured after 24 hrs by HPLC analysis; assay type: functional, organism-based; parameters: dose 3 mg/kg
# Rattus norvegicus [5] = assay: Inhibition of COMT in Wistar rat plasma assessed as increase L-DOPA level at 3 mg/kg, po co-administered with L-dopa and benserazide measured after 7 hrs by HPLC analysis; assay type: functional
# Rattus norvegicus [6] = assay: Inhibition of peripheral COMT in Wistar rat liver homogenates assessed as metanephrine formation at 3 mg/kg, po measured after 9 hrs
# [7] = Cytotoxicity against mouse Neuro2a cells assessed as cell viability at 30 uM after 24 hrs; assay type: functional; conditions: N2a, read-out: Activity
# Rattus norvegicus [8] = assay: Inhibition of central COMT in Wistar rat liver homogenates assessed as metanephrine formation at 3 mg/kg, po measured after 9 hrs; assay type: functional; conditions: Brain, in the assay text read “rat brain homogenates” for “rat liver homogenates”
# Rattus norvegicus [9] = assay: Inhibition of COMT in Wistar rat brain homogenates assessed as metanephrine formation at 3 mg/kg, po measured after 1 hr; assay type: functional, organism-based; parameters: dose 3 mg/kg
# Rattus norvegicus [10] = assay: Inhibition of COMT in Wistar rat plasma assessed as decrease in 3-O-methyl-L-Dopa level at 3 mg/kg, po co-administered with L-dopa and benserazide measured after 2 hrs by HPLC analysis; assay type: functional, organism-based; parameters: dose 3 mg/kg
# Rattus norvegicus [11] = assay: Inhibition of COMT in Wistar rat brain homogenates assessed as metanephrine formation at 3 mg/kg, po measured after 3 hrs; assay type: functional, organism-based; parameters: dose 3 mg/kg
# Rattus norvegicus [12] = assay: Inhibition of COMT in Wistar rat liver homogenates assessed as metanephrine formation at 3 mg/kg, po measured after 3 hrs; assay type: functional, organism-based; parameters: dose 3 mg/kg
# Rattus norvegicus [13] = species on record: Rattus norvegicus; conditions: Wistar, Liver, 3 mg/kg
# Rattus norvegicus [14] = assay: Inhibition of COMT in Wistar rat liver homogenates assessed as metanephrine formation at 3 mg/kg, po measured after 1 hr; assay type: functional, organism-based; parameters: dose 3 mg/kg
# Rattus norvegicus [15] = assay: Inhibition of COMT in Wistar rat plasma assessed as decrease in 3-O-methyl-L-Dopa level at 3 mg/kg, po co-administered with L-dopa and benserazide measured after 7 hrs by HPLC analysis; assay type: functional, organism-based; parameters: dose 3 mg/kg
# Rattus norvegicus [16] = assay: Inhibition of COMT in Wistar rat plasma assessed as increase L-DOPA level at 3 mg/kg, po co-administered with L-dopa and benserazide measured after 2 hrs by HPLC analysis; assay type: functional
# Mus musculus [17] = assay: Inhibition of COMT in NMRI mouse liver homogenates assessed as metanephrine formation at 3 mg/kg, po measured after 3 hrs relative to control; values are per cent of control
# Rattus norvegicus [18] = assay: Inhibition of COMT in Wistar rat liver homogenates assessed as metanephrine formation at 3 mg/kg, po measured after 3 hrs relative to control; values are per cent of control
# Rattus norvegicus [19] = assay: Inhibition of peripheral COMT in Wistar rat brain homogenates assessed as metanephrine formation at 3 mg/kg, po measured after 24 hrs; assay type: functional; conditions: Liver, in the assay text read “rat liver homogenates” for “rat brain homogenates”
# Rattus norvegicus [20] = assay: Inhibition of peripheral COMT in Wistar rat liver homogenates assessed as metanephrine formation at 3 mg/kg, po measured after 24 hrs; assay type: functional
# Rattus norvegicus [21] = assay: Inhibition of COMT in Wistar rat plasma assessed as decrease in 3-O-methyl-L-Dopa level at 3 mg/kg, po co-administered with L-dopa and benserazide measured after 2 hrs by HPLC analysis relative to control; assay type: functional
# Rattus norvegicus [22] = assay: Inhibition of central COMT in Wistar rat brain homogenates assessed as metanephrine formation at 3 mg/kg, po measured up to 24 hrs
# Rattus norvegicus [23] = assay: Inhibition of COMT in Wistar rat plasma assessed as decrease in 3-O-methyl-L-Dopa level at 3 mg/kg, po co-administered with L-dopa and benserazide measured after 24 hrs by HPLC analysis; assay type: functional, organism-based; parameters: dose 3 mg/kg
# Rattus norvegicus [24] = assay: Inhibition of central COMT in Wistar rat brain homogenates assessed as metanephrine formation at 3 mg/kg, po measured up to 24 hrs; assay type: functional, organism-based; parameters: dose 3 mg/kg
smiles,measurement,setting,value
Cc1ccc(C(=O)c2cc(O)c(O)c([N+](=O)[O-])c2)cc1 [TOLCAPONE],ED50,Rattus norvegicus [1],1.77 mg/kg
same,"level, % of control at 30 mg/kg",Mus musculus [2],6.8%
same,inhibition in vivo at 3 mg/kg,Rattus norvegicus [3],50%
same,inhibition,Rattus norvegicus [4],inactive
same,fold change (FC),Rattus norvegicus [5],2
same,inhibition,Rattus norvegicus [6],inactive
same,viability at 30 µM,[7],27.2%
same,inhibition in vivo at 3 mg/kg,Rattus norvegicus [8],50%
same,inhibition,Rattus norvegicus [9],Active
same,inhibition,Rattus norvegicus [10],Active
same,inhibition,Rattus norvegicus [11],Active
same,inhibition,Rattus norvegicus [12],Active
same,inhibition,Rattus norvegicus [13],inactive
same,Activity,Rattus norvegicus [14],Active
same,inhibition,Rattus norvegicus [15],Active
same,fold change (FC),Rattus norvegicus [16],3
same,"level, % of control at 3 mg/kg",Mus musculus [17],15.1%
same,"level, % of control at 3 mg/kg",Rattus norvegicus [18],23.8%
Cc1c(Cl)c(C)[n+]([O-])c(Cl)c1-c1noc(-c2cc(O)c(O)c([N+](=O)[O-])c2)n1 [OPICAPONE],inhibition in vivo at 3 mg/kg,Rattus norvegicus [19],50%
same,ED50,Rattus norvegicus [1],1.05 mg/kg
same,inhibition in vivo at 3 mg/kg,Rattus norvegicus [20],50%
same,inhibition in vivo at 3 mg/kg,Rattus norvegicus [21],50%
same,viability at 30 µM,[7],86.6%
same,inhibition,Rattus norvegicus [22],inactive
same,inhibition,Rattus norvegicus [12],Active
same,inhibition,Rattus norvegicus [14],Active
same,inhibition,Rattus norvegicus [23],Active
same,inhibition,Rattus norvegicus [24],inactive
same,fold change (FC),Rattus norvegicus [16],2
same,"level, % of control at 3 mg/kg",Rattus norvegicus [18],0.7%
